In ChEMBL document CHEMBL4706519, “Evaluation of N-phenyl-2-aminothiazoles for treatment of multi-drug resistant and intracellular Staphylococcus aureus infections” (Eur J Med Chem, 2020):
Converted amounts (≈) assume the structure as drawn.

Assays:
[1] = Selectivity index, ratio of maximum non-toxic concentration for human Caco-2 cells to MIC for methicillin-resistant Staphylococcus aureus USA500 NRS385; type: toxicity
[2] = tested on: Staphylococcus aureus; test: Bactericidal activity against methicillin-resistant Staphylococcus aureus USA400 NRS123 assessed as eradication of bacterial count at 5 times MIC incubated for 2 hrs in soy broth followed by incubation for 18 to 20 hrs on agar plate by time kill assay; type: functional; settings: time 20-22 hrs
[3] = tested on: Staphylococcus aureus; test: Ratio of MIC for methicillin-resistant Staphylococcus aureus USA400 NRS123 measured after 7th passage to MIC for methicillin-resistant Staphylococcus aureus USA400 NRS123 measured after 18 to 20 hrs by broth microdilution assay; type: functional
[4] = tested on: Enterococcus faecium; test: Ratio of MBC to MIC for vancomycin-resistant Enterococcus faecium ATCC 700221 assessed as inhibition of bacterial growth measured after 18 to 20 hrs by CLSI protocol based broth microdilution method; type: functional; settings: time 18-20 hrs
[5] = tested on: Escherichia coli; test: Antibacterial activity against wild type Escherichia coli BW25113 assessed as inhibition of bacterial growth measured after 18 to 20 hrs by broth microdilution method; type: functional; settings: time 18-20 hrs
[6] = tested on: Staphylococcus aureus; test: Antibacterial activity against methicillin-resistant Staphylococcus aureus USA400 NRS123 infected in mouse J774 cells assessed as reduction in intracellular bacterial burden at 2 x MIC measured after 24 hrs relative to control; type: functional
[7] = Selectivity index, ratio of maximum non-toxic concentration for human Caco-2 cells to MIC for methicillin-resistant Staphylococcus aureus USA300 NRS384; type: toxicity
[8] = tested on: Staphylococcus epidermidis; test: Antibacterial activity against methicillin-resistant Staphylococcus epidermidis NRS101 assessed as inhibition of bacterial growth measured after 18 to 20 hrs by CLSI protocol based broth microdilution method; type: functional; settings: time 18-20 hrs
[9] = tested on: Staphylococcus aureus; test: Antibacterial activity against methicillin-resistant Staphylococcus aureus USA400 NRS123 infected in mouse J774 cells assessed as log reduction in intracellular bacterial burden at 2 x MIC measured after 24 hrs; type: functional
[10] = tested on: Staphylococcus aureus; test: Antibacterial activity against methicillin-resistant Staphylococcus aureus USA400 NRS123 infected in mouse J774 cells assessed as log reduction in intracellular bacterial burden at 4 x MIC measured after 24 hrs; type: functional
[11] = tested on: Escherichia coli; test: Antibacterial activity against Escherichia coli JW55031 harboring toIC efflux mutant assessed as inhibition of bacterial growth measured after 18 to 20 hrs by broth microdilution method; type: functional; settings: time 18-20 hrs
[12] = tested on: Enterococcus faecalis; test: microbe, parasite or virus in culture; settings: ATCC 51299
[13] = tested on: Streptococcus pneumoniae; test: Ratio of MBC to MIC for cephalosporin-resistant Streptococcus pneumoniae ATCC 51916 assessed as inhibition of bacterial growth measured after 18 to 20 hrs by CLSI protocol based broth microdilution method; type: functional; settings: time 18-20 hrs
[14] = Selectivity index, ratio of maximum non-toxic concentration for human Caco-2 cells to MIC for methicillin-resistant Staphylococcus aureus NRS119; type: toxicity
[15] = tested on: Staphylococcus aureus; test: microbe, parasite or virus in culture; settings: USA500 NRS385
[16] = tested on: Staphylococcus aureus; test: Antibacterial activity against methicillin-resistant Staphylococcus aureus USA300 NRS384 assessed as inhibition of bacterial growth measured after 18 to 20 hrs by broth microdilution method; type: functional; settings: time 18-20 hrs
[17] = tested on: Staphylococcus aureus; test: Ratio of MBC to MIC against methicillin-sensitive Staphylococcus aureus ATCC 6538 assessed as inhibition of bacterial growth measured after 18 to 20 hrs by CLSI broth microdilution method; type: functional; settings: time 18-20 hrs
[18] = tested on: Staphylococcus aureus; test: microbe, parasite or virus in culture; settings: USA700 NRS386
[19] = tested on: Staphylococcus epidermidis; test: Ratio of MBC to MIC for methicillin-resistant Staphylococcus epidermidis NRS101 assessed as inhibition of bacterial growth measured after 18 to 20 hrs by CLSI protocol based broth microdilution method; type: functional; settings: time 18-20 hrs
[20] = tested on: Staphylococcus aureus; test: Bactericidal activity against methicillin-resistant Staphylococcus aureus USA400 NRS123 assessed as post-antibiotic effect at 5 times MIC incubated for 2 hrs followed by compound wash-out by viable plate count method; type: functional
[21] = tested on: Staphylococcus aureus; test: Bactericidal activity against methicillin-resistant Staphylococcus aureus USA400 NRS123 assessed as log reduction in viable bacteria count at 5 times MIC incubated for 2 hrs in soy broth followed by incubation for 18 to 20 hrs on agar plate by time kill assay; type: functional; settings: time 20-22 hrs
[22] = tested on: Staphylococcus aureus; test: microbe, parasite or virus in culture; settings: ATCC 6538
[23] = tested on: Enterococcus faecalis; test: Ratio of MBC to MIC for vancomycin-resistant Enterococcus faecalis ATCC 51299 assessed as inhibition of bacterial growth measured after 18 to 20 hrs by CLSI protocol based broth microdilution method; type: functional; settings: time 18-20 hrs
[24] = tested on: Staphylococcus aureus; test: Ratio of MBC to MIC against methicillin-sensitive Staphylococcus aureus NRS107 assessed as inhibition of bacterial growth measured after 18 to 20 hrs by CLSI protocol based broth microdilution method; type: functional; settings: time 18-20 hrs
[25] = tested on: Listeria monocytogenes; test: Antibacterial activity against Listeria monocytogenes ATCC 19111 assessed as inhibition of bacterial growth measured after 18 to 20 hrs by CLSI protocol based broth microdilution method; type: functional; settings: time 18-20 hrs
[26] = tested on: Streptococcus pneumoniae; test: Ratio of MBC to MIC for methicillin-resistant Streptococcus pneumoniae ATCC 700677 assessed as inhibition of bacterial growth measured after 18 to 20 hrs by CLSI protocol based broth microdilution method; type: functional; settings: time 18-20 hrs
[27] = Selectivity index, ratio of maximum non-toxic concentration for human Caco-2 cells to MIC for methicillin-resistant Staphylococcus aureus USA400 NRS123; type: toxicity
[28] = tested on: Staphylococcus aureus; test: Antibacterial activity against vancomycin-resistant Staphylococcus aureus 10 assessed as inhibition of bacterial growth measured after 18 to 20 hrs by CLSI protocol based broth microdilution method; type: functional; settings: time 18-20 hrs
[29] = tested on: Streptococcus pneumoniae; test: Antibacterial activity against methicillin-resistant Streptococcus pneumoniae ATCC 700677 assessed as inhibition of bacterial growth measured after 18 to 20 hrs by CLSI protocol based broth microdilution method; type: functional; settings: time 18-20 hrs
[30] = tested on: Staphylococcus aureus; test: Ratio of MIC for methicillin-resistant Staphylococcus aureus USA400 NRS123 measured after 14th passage to MIC for methicillin-resistant Staphylococcus aureus USA400 NRS123 measured after 18 to 20 hrs by broth microdilution assay; type: functional
[31] = tested on: Staphylococcus aureus; test: microbe, parasite or virus in culture; settings: NRS107
[32] = tested on: Staphylococcus aureus; test: Antibacterial activity against vancomycin-resistant Staphylococcus aureus 12 assessed as inhibition of bacterial growth measured after 18 to 20 hrs by CLSI protocol based broth microdilution method; type: functional; settings: time 18-20 hrs
[33] = tested on: Listeria monocytogenes; test: Ratio of MBC to MIC for Listeria monocytogenes ATCC 19111 assessed as inhibition of bacterial growth measured after 18 to 20 hrs by CLSI protocol based broth microdilution method; type: functional; settings: time 18-20 hrs
[34] = Cytotoxicity against human Caco-2 cells assessed as cell viability at 32 ug/ml incubated for 2 hrs by MTS assay relative to control; type: cell-based; settings: at 32 µg/mL, read-out: Activity
[35] = tested on: Staphylococcus aureus; test: microbe, parasite or virus in culture; settings: NRS119
[36] = tested on: J774; test: Cytotoxicity against mouse J774 cells assessed as cell viability at 32 ug/ml incubated for 2 hrs by MTS assay; type: cell-based; settings: j774, 2 h, dose 32 µg/ml
[37] = tested on: Streptococcus pneumoniae; test: Antibacterial activity against cephalosporin-resistant Streptococcus pneumoniae ATCC 51916 assessed as inhibition of bacterial growth measured after 18 to 20 hrs by CLSI protocol based broth microdilution method; type: functional; settings: time 18-20 hrs
[38] = tested on: Staphylococcus aureus; test: microbe, parasite or virus in culture; settings: USA400 NRS123
[39] = Selectivity index, ratio of maximum non-toxic concentration for human Caco-2 cells to MIC for methicillin-resistant Staphylococcus aureus USA700 NRS386; type: toxicity
[40] = tested on: Enterococcus faecium; test: Antibacterial activity against vancomycin-resistant Enterococcus faecium ATCC 700221 assessed as inhibition of bacterial growth measured after 18 to 20 hrs by CLSI protocol based broth microdilution method; type: functional; settings: time 18-20 hrs
[41] = tested on: Staphylococcus aureus; test: Antibacterial activity against methicillin-resistant Staphylococcus aureus USA400 NRS123 infected in mouse J774 cells assessed as reduction in intracellular bacterial burden at 4 x MIC measured after 24 hrs relative to control; type: functional

C/C(=N\NC(=N)N)c1ccc(Nc2nc(-c3ccc(Cl)cc3)cs2)cc1
selectivity ratio [1]: 16
Activity [2]: 100%
Ratio [3]: 1
Ratio [4]: 1
MIC [5]: 8 µg/mL (≈ 20.8 µM)
inhibition (INH) [6]: 69%
selectivity ratio [7]: 16
MBC [8]: 1 µg/mL (≈ 2.6 µM)
MIC [8]: 1 µg/mL (≈ 2.6 µM)
Activity [9]: 0.51 log10CFU/ml
Activity [10]: 1.56 log10CFU/ml
MIC [11]: 8 µg/mL (≈ 20.8 µM)
MBC [12]: 4 µg/mL (≈ 10.4 µM)
MIC [12]: 1 µg/mL (≈ 2.6 µM)
Ratio [13]: 1
selectivity ratio [14]: 16
MBC [15]: 2 µg/mL (≈ 5.2 µM)
MIC [15]: 1 µg/mL (≈ 2.6 µM)
MIC [16]: 4 µg/mL (≈ 10.4 µM)
Ratio [17]: 1
MBC [18]: 4 µg/mL (≈ 10.4 µM)
MIC [18]: 1 µg/mL (≈ 2.6 µM)
Ratio [19]: 1
PAE [20]: 4 h
Activity [21]: 3 log10CFU/ml
MBC [22]: 1 µg/mL (≈ 2.6 µM)
MIC [22]: 1 µg/mL (≈ 2.6 µM)
Ratio [23]: 1
Ratio [24]: 1
MBC [25]: 2 µg/mL (≈ 5.2 µM)
MIC [25]: 1 µg/mL (≈ 2.6 µM)
Ratio [26]: 1
selectivity ratio [27]: 16
MBC [28]: 1 µg/mL (≈ 2.6 µM)
MIC [28]: 1 µg/mL (≈ 2.6 µM)
MBC [29]: 4 µg/mL (≈ 10.4 µM)
MIC [29]: 2 µg/mL (≈ 5.2 µM)
Ratio [30]: 3
MBC [31]: 1 µg/mL (≈ 2.6 µM)
MIC [31]: 1 µg/mL (≈ 2.6 µM)
MBC [32]: 1 µg/mL (≈ 2.6 µM)
MIC [32]: 1 µg/mL (≈ 2.6 µM)
Ratio [33]: 1
viability at 2 h, 32 ug/ml [34]: 100%
MBC [35]: 1 µg/mL (≈ 2.6 µM)
MIC [35]: 1 µg/mL (≈ 2.6 µM)
Activity [36]: Non-Toxic
MBC [37]: 4 µg/mL (≈ 10.4 µM)
MIC [37]: 2 µg/mL (≈ 5.2 µM)
MBC [38]: 1 µg/mL (≈ 2.6 µM)
MIC [38]: 1 µg/mL (≈ 2.6 µM)
selectivity ratio [39]: 16
MBC [40]: 2 µg/mL (≈ 5.2 µM)
MIC [40]: 1 µg/mL (≈ 2.6 µM)
inhibition (INH) [41]: 97%
